# Reference: patent publication US20060135773A1, “Trisubstituted nitrogen modulators of tyrosine phosphatases” (priority 2004, published 2006)
# Target: T1, PTP-1B (Homo sapiens, UniProt P18031)
# T1 construct: PTP-1B (purified, 1 mg/mL) as a 1:250 dilution
# T1 sequence (P18031 1-321 limits assumed): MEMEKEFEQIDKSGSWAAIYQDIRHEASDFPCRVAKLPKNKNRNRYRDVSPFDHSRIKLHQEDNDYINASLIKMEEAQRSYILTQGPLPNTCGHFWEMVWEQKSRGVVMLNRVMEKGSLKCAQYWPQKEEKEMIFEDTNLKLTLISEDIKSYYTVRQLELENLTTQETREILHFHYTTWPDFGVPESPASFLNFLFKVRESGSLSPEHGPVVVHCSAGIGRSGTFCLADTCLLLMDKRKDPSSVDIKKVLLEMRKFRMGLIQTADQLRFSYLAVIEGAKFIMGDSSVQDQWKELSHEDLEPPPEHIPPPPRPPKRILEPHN
# Test: pNPP tyrosine phosphatase inhibition assay, PTP-1B
# Type: biochemical
# Details: pNPP assay, PTP-1B; read-out: Activity Class (IC50 ranges)
# Summary of the method: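 Test compounds were screened at two final levels, 31.3 and 10 µM, against 4 µg/mL purified PTP-1B. The substrate was 10 mM p-nitrophenyl phosphate, with incubation for 10 min at 30°C before a K2CO3 quench. Activity was taken from A405.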
row,Compound,IC50 [nM]
1,"2,2-Dimethyl-propionic acid [(2-bromo-4-{[(4-methanesulfonyl-phenyl)-(2-methoxy-benzenesulfonyl)-amino]-methyl}-phenyl)-difluoro-methyl]-(2,2-dimethyl-propionyloxymethoxy)-phosphinoyloxymethyl ester [Compound 229]",> 25000
2,"COc1ccccc1S(=O)(=O)N(Cc1ccc(C(F)(F)P(=O)(O)O)c(Cl)c1)C(C)c1ccccc1 (stereo not drawn) [Compound 166, [(2-Chloro-4-{[(2-methoxy-benzenesulfonyl)-(1-phenyl-ethyl)-amino]-methyl}-phenyl)-difluoro-methyl]-phosphonic acid]",2500 to 25000
3,"O=C(O)c1ccc(CN(Cc2ccc(Cl)c(Cl)c2)S(=O)(=O)c2ccccc2Cl)cc1Br [Compound 94, 2-Bromo-4-{[(2-chloro-benzenesulfonyl)-(3,4-dichloro-benzyl)-amino]-methyl}-benzoic acid]",> 25000
4,"COc1ccccc1S(=O)(=O)N(Cc1ccc(C(F)(F)P(=O)(O)O)c(Cl)c1)Cc1ccccc1Oc1ccccc1 [Compound 173, [(2-Chloro-4-{[(2-methoxy-benzenesulfonyl)-(2-phenoxy-benzyl)-amino]-methyl}-phenyl)-difluoro-methyl]-phosphonic acid]",100 to 249
5,"COc1ccccc1S(=O)(=O)N(CCc1ccc(-c2cccc(C(=O)O)c2)cc1)Cc1ccc(C(F)(F)P(=O)(O)O)c(Cl)c1 [Compound 188, 4′-{2-[[3-Chloro-4-(difluoro-phosphono-methyl)-benzyl]-(2-methoxy-benzenesulfonyl)-amino]-ethyl}-biphenyl-3-carboxylic acid]",250 to 499
6,"COc1ccccc1S(=O)(=O)N(Cc1ccc(C=CC(=O)O)cc1)Cc1ccc(C=CC(=O)O)cc1 [Compound 132, 3-(4-{[[4-(2-Carboxy-vinyl)-benzyl]-(2-methoxy-benzenesulfonyl)-amino]-methyl}-phenyl)-acrylic acid]",> 25000
7,{[4-(difluorophosphonomethyl)-3-chlorophenyl]methyl}[(2 methoxyphenyl)sulfonyl]{[2-(3-methylthiophenyl)phenyl]methyl}amine [Compound 206],< 99
8,"COC(=O)c1ccc(CN(Cc2ccc(C(F)(F)P(=O)(O)O)c(Br)c2)S(=O)(=O)c2ccccc2)cc1 [Compound 30, 4-({Benzenesulfonyl-[3-bromo-4-(difluoro-phosphono-methyl)-benzyl]-amino}-methyl)-benzoic acid methyl ester]",250 to 499
9,"COc1ccccc1S(=O)(=O)N(Cc1ccc(C#N)cc1)Cc1ccc(C(F)(F)P(=O)(O)O)c(Br)c1 [Compound 105, [(2-Bromo-4-{[(4-cyano-benzyl)-(2-methoxybenzenesulfonyl)-amino]-methyl}-phenyl)-difluoro-methyl]-phosphonic acid]",100 to 249
10,5-{4-[({[4-(difluorophosphonomethyl)-3-chlorophenyl]methyl}[(2-methoxyphenyl)sulfonyl]amino)methyl]phenyl}-2-methoxybenzoic acid [Compound 207],< 99
11,{[4-(difluorophosphonomethyl)-3-chlorophenyl]methyl}[(2-methoxyphenyl)sulfonyl](2-piperidylmethyl)amine [Compound 213],2500 to 25000
12,"COc1ccccc1S(=O)(=O)N(Cc1cccc(-c2cccc(S(C)(=O)=O)c2)c1)Cc1ccc(C(F)(F)P(=O)(O)O)c(Cl)c1 [Compound 142, [(2-Chloro-4-{[(3′-methanesulfonyl-biphenyl-3-ylmethyl)-(2-methoxy-benzenesulfonyl)-amino]-methyl}-phenyl)-difluoro-methyl]-phosphonic acid]",250 to 499
13,{[4-(difluorophosphonomethyl)-3-chlorophenyl]methyl}[(2-ethoxyphenyl)methyl][(2-methoxyphenyl)sulfonyl]amine [Compound 212],250 to 499
14,"CCOc1cccc(-c2ccccc2CN(Cc2ccc(C(F)(F)P(=O)(O)O)c(Cl)c2)S(=O)(=O)c2ccccc2OC)c1 [Compound 217, [(2-Chloro-4-{[(3′-ethoxy-biphenyl-2-ylmethyl)-(2-methoxy-benzenesulfonyl)-amino]-methyl}-phenyl)-difluoro-methyl]-phosphonic acid]",< 99
15,"COc1ccccc1S(=O)(=O)N(Cc1ccc(-c2cccc(C(N)=O)c2)cc1)Cc1ccc(C(F)(F)P(=O)(O)O)c(Cl)c1 [Compound 161, [(4-{[(3′-Carbamoyl-biphenyl-4-ylmethyl)-(2-methoxy-benzenesulfonyl)-amino]-methyl}-2-chloro-phenyl)-difluoro-methyl]-phosphonic acid]",100 to 249
16,"COc1ccccc1S(=O)(=O)N(Cc1ccc(S(C)(=O)=O)cc1)Cc1ccc(C(F)(F)P(=O)(O)O)c(Br)c1 [Compound 108, [(2-Bromo-4-{[(4-methanesulfonyl-benzyl)-(2-methoxy-benzenesulfonyl)-amino]-methyl}-phenyl)-difluoro-methyl]-phosphonic acid]",250 to 499
17,"COC(=O)c1ccc(CN(Cc2ccc(C(F)(F)P(=O)(O)O)c(Cl)c2)S(=O)(=O)c2ccccc2OC)cc1 [Compound 231, 4-{[[3-Chloro-4-(difluoro-phosphono-methyl)-benzyl]-(2-methoxy-benzenesulfonyl)-amino]-methyl}-benzoic acid methyl ester]",250 to 499
18,"O=P(O)(O)C(F)(F)c1ccc(CN(Cc2ccc(C(F)(F)P(=O)(O)O)cc2)S(=O)(=O)c2ccc(Cl)cc2)cc1 [Compound 73, {[4-({(4-Chloro-benzenesulfonyl)-[4-(difluoro-phosphono-methyl)-benzyl]-amino}-methyl)-phenyl]-difluoro-methyl}-phosphonic acid]",250 to 499
19,Methyl 5-{4-[({[4-(difluorophosphonomethyl)-3-chlorophenyl]methyl}[(2-methoxyphenyl)sulfonyl]amino)methyl]phenyl}-2-methoxybenzoate [Compound 205],100 to 249
20,"2,2-Dimethyl-propionic acid [(2-chloro-4-{[(3,4-dichloro-benzyl)-(2-methoxy-benzenesulfonyl)-amino]-methyl}-phenyl)-difluoro-methyl]-hydroxy-phosphinoyloxymethyl ester [Compound 150]",250 to 499
21,"COC(=O)c1ccc(-c2ccc(CN(Cc3ccc(C(F)(F)P(=O)(O)O)c(Cl)c3)S(=O)(=O)c3ccccc3OC)cc2)cc1F [Compound 174, 4′-{[[3-Chloro-4-(difluoro-phosphono-methyl)-benzyl]-(2-methoxy-benzenesulfonyl)-amino]-methyl}-3-fluoro-biphenyl-4-carboxylic acid methyl ester]",100 to 249
22,"COc1ccccc1S(=O)(=O)N(Cc1ccc(C(F)(F)P(=O)(O)O)c(Cl)c1)Cc1ccccc1-c1cccnc1 [Compound 179, [(2-Chloro-4-{[(2-methoxy-benzenesulfonyl)-(2-pyridin-3-yl-benzyl)-amino]-methyl}-phenyl)-difluoro-methyl]-phosphonic acid]",100 to 249
23,{[4-(difluorophosphonomethyl)-3-chlorophenyl]methyl}(cyclohexylmethyl)[(2-methoxyphenyl)sulfonyl]amine [Compound 203],250 to 499
24,"COc1ccccc1S(=O)(=O)N(Cc1ccc(-c2nnn[nH]2)cc1)Cc1ccc(S(C)(=O)=O)cc1 [Compound 115, N-(4-Methanesulfonyl-benzyl)-2-methoxy-N-[4-(1H-tetrazol-5-yl)-benzyl]-benzenesulfonamide]",> 25000
